Consider three molecules from paper PMC5469750, “Antibacterial and detoxifying activity of NZ17074 analogues with multi-layers of selective antimicrobial actions against Escherichia coli and Salmonella enteritidis” (Scientific Reports, 2017).

Structures are written as SMILES. Converted amounts (≈) assume the structure as drawn. Where a SMILES comes first, the peptide text is derived from it. Bridges are numbered along the chain shown (N, C = ends).

Experiment [1] has as its system P. aeruginosa CICC21630. It is filed as cell-based, Pseudomonas aeruginosa. Conditions: CICC21630. The protocol:
(§1) The antimicrobial activity of peptides was determined by the microbroth dilution method. The bacterial strains were incubated in Mueller-Hinton (MH) medium at 37 °C overnight until the mid-log phase (OD600 nm reading of 0.5). Bacteria were diluted to 1 × 10^5 CFU/ml and added into 96-well plates, followed by the addition of serial dilutions of peptides (from 0.0625 to 128 μg/ml). The plates were incubated at 37 °C for 18–24 h. The MIC value was determined as the lowest peptide concentration at which no bacterial growth was observed. All tests were conducted in triplicate.

Experiment [2] concerns Candida albicans CGMCC2.2411. In kind it is cell-based. Conditions: CGMCC2.2411.
Experiment [3] relates to E. coli CVCC195. It is filed as cell-based, Escherichia coli. Conditions: CVCC195, 3 h, 1. As for the experimental part: (§2) Radioactive precursors were added into cells (1 μCi/ml) and shaken at 37 °C for 20 min. Ice-cold 25% trichloroacetic acid (TCA) was added and placed on ice for 30 min. The cells were centrifuged and washed twice with ice-cold 25% TCA. After drying, the samples were mixed with scintillation fluid and counted for their radioactivity using a MicroBeta 1450 scintillation counter (Perkin Elmer)[62].

For experiment [4], the system named is S. enteritidis CVCC3377. In kind it is cell-based, Salmonella enteritidis. The conditions noted are these: CVCC3377, 3 h, 1. As for the experimental part:
as §2

For experiment [5], the system named is Listeria ivanovii ATCC19119. In kind it is cell-based. The conditions noted are these: ATCC19119. The protocol: as §1
Experiment [6] concerns Pseudomonas aeruginosa CICC10419. In kind it is cell-based. The conditions noted are these: CICC10419. As for the experimental part: as §1
The test system of experiment [7] is Salmonella typhimurium ATCC14028. In kind it is cell-based. The conditions noted are these: ATCC14028. As for the experimental part: as §1
In experiment [8] the test system is Enterococcus faecium CMCC1.2136. In kind it is cell-based. Conditions: CMCC1.2136. As for the experimental part: as §1
In experiment [9] the test system is S. pullorum CVCC1789. It is filed as cell-based. Conditions: CVCC1789. The protocol:
as §1

Experiment [10] has as its system Staphylococcus aureus ATCC43300. It is filed as cell-based. Conditions: ATCC43300. The protocol: as §1
Experiment [11] has as its system Escherichia coli CVCC195. It is filed as cell-based. Conditions: CVCC195. The protocol: as §1
The subject of experiment [12] is Bacillus subtilis ATCC6633. It is filed as cell-based. The conditions noted are these: ATCC6633. As for the experimental part: as §1
The subject of experiment [13] is S. suis CVCC606. It is filed as cell-based. As for the experimental part:
as §1

Experiment [14] deals with S. pullorum CVCC1802. In kind it is cell-based. Conditions: CVCC1802. As for the experimental part:
as §1

Experiment [15] relates to E. coli CVCC1515. In kind it is cell-based, Escherichia coli. The conditions noted are these: CVCC1515. The protocol:
as §1

Experiment [16] deals with S. aureus ATCC25923. It is filed as cell-based, Staphylococcus aureus. Conditions: ATCC25923. As for the experimental part:
as §1

For experiment [17], the system named is S. enteritidis CVCC3377. It is filed as cell-based, Salmonella enteritidis. The conditions noted are these: CVCC3377. The protocol:
as §1

Experiment [18] deals with S. choleraesuis CVCC503. It is filed as cell-based. The conditions noted are these: CVCC503. The protocol:
as §1

Experiment [19] is described as follows: LPS binding, BODIPY-TR-cadaverine (BC) displacement. The conditions noted are these: negative control; 50 mM Tris buffer pH 7.4. The protocol:
Equal volumes of 40 μg/ml LPS and 10 μM BC in 50 mM Tris buffer (pH 7.4) were mixed, added into 96-well plates and incubated in the dark for 4 h at room temperature. […] Fluorescence was then measured using a microplate reader (excitation/emission, 580/620 nm). The occupancy rate was calculated by the following equation: BC displacement rate (%) = (1 − (F0 − F)/(F0 − Fmax)) × 100, wherein F0 is the fluorescence intensity of the solution of BC alone; Fmax is the fluorescence intensity in the presence of LPS at the saturation concentration, and F is the intensity of LPS:BC mixtures at varying displacer concentrations.

The MIC is the smallest concentration in the dilution series that meets the test's criterion for growth inhibition. Read a low MIC as greater potency. For the molecule `CC(C)[C@@H]1NC(=O)[C@H](C)NC(=O)[C@H](CC(N)=O)NC(=O)[C@H](CCCNC(=N)N)NC(=O)[C@H](Cc2ccc(O)cc2)NC(=O)[C@H](C(C)C)NC(=O)[C@@H]2CSSC[C@H](NC(=O)[C@H](C(C)C)NC(=O)[C@H](CCCNC(=N)N)NC1=O)C(=O)N[C@@H](Cc1c[nH]cn1)C(=O)N[C@@H](CCCNC(=N)N)C(=O)N[C@@H](CCCNC(=N)N)C(=O)N[C@H](C(=O)N[C@@H](CC(N)=O)C(=O)O)CSSC[C@H](NC(=O)[C@H](Cc1ccccc1)NC(=O)[C@H](C)N)C(=O)N[C@@H](Cc1c[nH]c3ccccc13)C(=O)N[C@@H](CC(N)=O)C(=O)N[C@@H](C(C)C)C(=O)N2` [N2] (H-AFCWNVCVYRNAVRVCHRRCN-OH; disulfide 3-20, 7-16), the MIC worked out at 2 µg/mL (≈ 0.779 µM) in experiment [1]; 32 µg/mL (≈ 12.5 µM) in experiment [2]; 4 µg/mL (≈ 1.56 µM) in experiment [5]; 2 µg/mL (≈ 0.779 µM) in [6]; 1 µg/mL (≈ 0.39 µM) in [7]; 4 µg/mL (≈ 1.56 µM) in experiment [8]. Also, the MIC in experiment [9] came out at 0.5 µg/mL (≈ 0.195 µM); in experiment [10], 16 µg/mL (≈ 6.24 µM); in experiment [11], 0.25 µg/mL (≈ 0.0974 µM); in experiment [12], 0.5 µg/mL (≈ 0.195 µM); in [13], 16 µg/mL (≈ 6.24 µM); in [14] it was 0.25 µg/mL (≈ 0.0974 µM). Moreover, the MIC was found to be 0.5 µg/mL (≈ 0.195 µM) in experiment [15], 0.25 µg/mL (≈ 0.0974 µM) in experiment [16] and 0.125 µg/mL (≈ 0.0487 µM) in [17]. The “inhibition of 3H-thymidine incorporation (DNA synthesis)” value in [3] is 28.6%. Further, in experiment [3], the “inhibition of 3H-uridine incorporation (RNA synthesis)” value came to 18.7%. The “inhibition of DNA synthesis (3H-thymidine)” value in experiment [4] was determined as 35.5%. Besides, the “inhibition of protein synthesis (3H-leucine)” value in [4] came to 17.0%.

As for `CC(C)[C@@H]1NC(=O)CNC(=O)[C@H](CC(N)=O)NC(=O)[C@H](CCCNC(=N)N)NC(=O)[C@H](Cc2ccc(O)cc2)NC(=O)[C@H](C(C)C)NC(=O)[C@@H](NC(=O)[C@@H](NC(=O)[C@H](CC(N)=O)NC(=O)[C@H](Cc2c[nH]c3ccccc23)NC(=O)[C@H](C)NC(=O)[C@H](Cc2ccccc2)NC(=O)CN)C(C)C)CSSC[C@@H](C(=O)N[C@@H](Cc2c[nH]cn2)C(=O)N[C@@H](CCCNC(=N)N)C(=O)N[C@@H](CCCNC(=N)N)C(=O)N[C@@H](C)C(=O)N[C@@H](CC(N)=O)C(=O)O)NC(=O)[C@H](C(C)C)NC(=O)[C@H](CCCNC(=N)N)NC1=O` [N6] (H-GFAWNVCVYRNGVRVCHRRAN-OH; disulfide 7-16), the MIC was 4 µg/mL (≈ 1.62 µM) in [1]; 64 µg/mL (≈ 25.8 µM) in [2]; 8 µg/mL (≈ 3.23 µM) in [6]; 2 µg/mL (≈ 0.808 µM) in [7]; 4 µg/mL (≈ 1.62 µM) in experiment [8]; 0.5 µg/mL (≈ 0.202 µM) in experiment [9]. Moreover, the minimal inhibitory concentration (MIC) in experiment [10] came to 16 µg/mL (≈ 6.46 µM); in experiment [11], 0.5 µg/mL (≈ 0.202 µM); in [18], 2 µg/mL (≈ 0.808 µM); in [12], 0.5 µg/mL (≈ 0.202 µM); in experiment [13], 16 µg/mL (≈ 6.46 µM); in experiment [14] it was 0.5 µg/mL (≈ 0.202 µM). For the same molecule, the values for the MIC in experiment [15], in [16] and in [17] were 1 µg/mL (≈ 0.404 µM), 0.25 µg/mL (≈ 0.101 µM) and 0.25 µg/mL (≈ 0.101 µM), respectively. Besides, in experiment [3], the “inhibition of 3H-thymidine incorporation (DNA synthesis)” value was 43.8%. For the same molecule, the “inhibition of DNA synthesis (3H-thymidine)” value in [4] came out at 61.8%. The “inhibition of RNA biosynthesis (3H-uridine)” value in experiment [4] is listed as 5.7%.

On to `CC1(C)S[C@@H]2[C@H](NC(=O)[C@H](N)c3ccccc3)C(=O)N2[C@H]1C(=O)O` [ampicillin], for which, in experiment [19], the “BC displacement / binding to LPS” value is “did not displace BC”.
